In ChEMBL document CHEMBL1201862, “PubChem BioAssay data set” (2004):
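Where inhibition never reached the appropriate level, the endpoint shown equals the highest concentration tested. Otherwise, values were interpolated linearly from a five-concentration, 48-hour dose response in 96-well plates. Abbreviation: GI50, concentration required for 50% inhibition of growth.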 Calls of active or inactive are those of the source. Rule as the data show it: active = GI50 up to about 1.1 µM and inactive = higher.

Key:
Test in all cases: NCI tumour cell line growth inhibition, 48 h
SK-MEL-28 = system: SK-MEL-28
NCI/ADR-RES = system: NCI/ADR-RES
UACC-62 = system: UACC-62
SNB-19 = system: SNB-19
A549 = system: A549
COLO 205 = system: COLO 205
MCF7 = system: MCF7
K562 = system: K562
HOP-92 = system: HOP-92
UACC-257 = system: UACC-257
OVCAR-4 = system: OVCAR-4
HT-29 = system: HT-29
HL-60 = system: HL-60
SK-MEL-5 = system: SK-MEL-5
OVCAR-5 = system: OVCAR-5
NCI-H226 = system: NCI-H226
SN12C = system: SN12C
NCI-H23 = system: NCI-H23
MDA-N = system: MDA-N
ACHN = system: ACHN

Measured: GI50

O=C(CCl)NC(Cc1ccc(F)cc1)C(=O)O (configuration not stated)
inactive: SK-MEL-28 > 100 µM | NCI/ADR-RES > 100 µM | UACC-62 > 100 µM | SNB-19 > 100 µM | A549 > 100 µM | COLO 205 > 100 µM | MCF7 > 100 µM | K562 > 100 µM | HOP-92 > 100 µM | UACC-257 > 100 µM | OVCAR-4 > 100 µM | HT-29 > 100 µM | HL-60 > 100 µM | SK-MEL-5 > 100 µM | OVCAR-5 > 100 µM | NCI-H226 > 100 µM | SN12C > 100 µM | NCI-H23 > 100 µM

O=C1N=C(SC(SC2=NC(=O)C3(NN2)c2ccccc2-c2ccccc23)=C(SC2=NC(=O)C3(NN2)c2ccccc2-c2ccccc23)SC2=NC(=O)C3(NN2)c2ccccc2-c2ccccc23)NNC12c1ccccc1-c1ccccc12
inactive: SK-MEL-28 > 10 µM | NCI/ADR-RES 3.66 µM | UACC-62 6.53 µM | SNB-19 > 10 µM | A549 6.65 µM | COLO 205 7.21 µM | MCF7 4.27 µM | K562 5.11 µM | HOP-92 > 10 µM | UACC-257 5.64 µM | MDA-N 5.36 µM | OVCAR-4 8.07 µM | HT-29 6.61 µM | SK-MEL-5 3.22 µM | NCI-H226 2.76 µM | ACHN 2.07 µM | SN12C 6.5 µM | NCI-H23 7.59 µM

N=c1oc2c(Cl)cc(Cl)cc2cc1C(=O)Nc1ccccn1
inactive: SK-MEL-28 > 100 µM | NCI/ADR-RES 66.4 µM | UACC-62 20.6 µM | SNB-19 34.7 µM | A549 44.4 µM | COLO 205 > 100 µM | MCF7 29.2 µM | K562 71 µM | UACC-257 > 100 µM | MDA-N 62.1 µM | OVCAR-4 58.6 µM | HT-29 91.2 µM | HL-60 > 100 µM | SK-MEL-5 > 100 µM | OVCAR-5 > 100 µM | NCI-H226 > 100 µM | ACHN 22 µM | SN12C 99.3 µM | NCI-H23 41.4 µM

Cc1c2ccnc(C(F)(F)F)c2cc2c1[nH]c1ccccc12
inactive: SK-MEL-28 > 125 µM | NCI/ADR-RES > 125 µM | UACC-62 > 125 µM | SNB-19 118 µM | A549 > 125 µM | COLO 205 > 125 µM | MCF7 17.1 µM | K562 > 125 µM | HOP-92 8.63 µM | UACC-257 > 125 µM | OVCAR-4 > 125 µM | HT-29 > 125 µM | HL-60 > 125 µM | SK-MEL-5 > 125 µM | OVCAR-5 > 125 µM | NCI-H226 38.9 µM | SN12C > 125 µM | NCI-H23 > 125 µM

CC(O)C(O)C(N)CC=O (configuration not stated)
inactive: SK-MEL-28 > 500 µM | NCI/ADR-RES > 500 µM | UACC-62 > 500 µM | SNB-19 > 500 µM | A549 > 500 µM | COLO 205 > 500 µM | MCF7 > 500 µM | K562 > 500 µM | HOP-92 > 500 µM | UACC-257 > 500 µM | OVCAR-4 > 500 µM | HT-29 > 500 µM | HL-60 495 µM | SK-MEL-5 > 500 µM | OVCAR-5 175 µM | NCI-H226 > 500 µM | SN12C > 500 µM | NCI-H23 > 500 µM

O=C1C=C[C@@H](COC2OC(CO)C(O)C(O)C2O)O1 (some centres not stated)
inactive: SK-MEL-28 > 100 µM | NCI/ADR-RES 4.38 µM | UACC-62 10.2 µM | SNB-19 > 10 µM | A549 22 µM | COLO 205 6.98 µM | MCF7 4.46 µM | K562 3.42 µM | HOP-92 20.5 µM | UACC-257 14.3 µM | OVCAR-4 19 µM | HT-29 5.86 µM | HL-60 1.72 µM | SK-MEL-5 17.8 µM | OVCAR-5 22 µM | NCI-H226 35.7 µM | SN12C 5.93 µM | NCI-H23 10.9 µM

CC1=CC[C@@H]2[C@@H](CC[C@@]2(C)O)C(C)(C)[C@H]1CC[C@@H]1[C@@]2(C)CCC(=O)C(C)(C)O[C@@H]2CC[C@]1(C)O
inactive: SK-MEL-28 31.2 µM | NCI/ADR-RES 21.9 µM | UACC-62 16.1 µM | SNB-19 26.9 µM | A549 24.7 µM | COLO 205 25.6 µM | MCF7 37.3 µM | UACC-257 30.3 µM | MDA-N 25 µM | OVCAR-4 39.1 µM | HT-29 > 10 µM | HL-60 16.9 µM | SK-MEL-5 17.2 µM | OVCAR-5 71 µM | NCI-H226 22.5 µM | ACHN 19.5 µM | SN12C 22.4 µM | NCI-H23 34.3 µM
